# Peptide text beside a SMILES is read from it. * marks the point of attachment. Bz = O=C(c1ccccc1)*
# Tests used:
# ACE from rabbit lung = conditions: sodium chloride removed from reaction medium; cited from earlier work
# Guinea pig urinary ACE = target: T1, Guinea pig urinary ACE (Cavia porcellus, UniProt H0UWL7); test: Sulfate and chloride effects on ACE catalysed substrate hydrolysis; assay type: biochemical; conditions: 0.05M Hepes
# T1 sequence (H0UWL7 33-1302): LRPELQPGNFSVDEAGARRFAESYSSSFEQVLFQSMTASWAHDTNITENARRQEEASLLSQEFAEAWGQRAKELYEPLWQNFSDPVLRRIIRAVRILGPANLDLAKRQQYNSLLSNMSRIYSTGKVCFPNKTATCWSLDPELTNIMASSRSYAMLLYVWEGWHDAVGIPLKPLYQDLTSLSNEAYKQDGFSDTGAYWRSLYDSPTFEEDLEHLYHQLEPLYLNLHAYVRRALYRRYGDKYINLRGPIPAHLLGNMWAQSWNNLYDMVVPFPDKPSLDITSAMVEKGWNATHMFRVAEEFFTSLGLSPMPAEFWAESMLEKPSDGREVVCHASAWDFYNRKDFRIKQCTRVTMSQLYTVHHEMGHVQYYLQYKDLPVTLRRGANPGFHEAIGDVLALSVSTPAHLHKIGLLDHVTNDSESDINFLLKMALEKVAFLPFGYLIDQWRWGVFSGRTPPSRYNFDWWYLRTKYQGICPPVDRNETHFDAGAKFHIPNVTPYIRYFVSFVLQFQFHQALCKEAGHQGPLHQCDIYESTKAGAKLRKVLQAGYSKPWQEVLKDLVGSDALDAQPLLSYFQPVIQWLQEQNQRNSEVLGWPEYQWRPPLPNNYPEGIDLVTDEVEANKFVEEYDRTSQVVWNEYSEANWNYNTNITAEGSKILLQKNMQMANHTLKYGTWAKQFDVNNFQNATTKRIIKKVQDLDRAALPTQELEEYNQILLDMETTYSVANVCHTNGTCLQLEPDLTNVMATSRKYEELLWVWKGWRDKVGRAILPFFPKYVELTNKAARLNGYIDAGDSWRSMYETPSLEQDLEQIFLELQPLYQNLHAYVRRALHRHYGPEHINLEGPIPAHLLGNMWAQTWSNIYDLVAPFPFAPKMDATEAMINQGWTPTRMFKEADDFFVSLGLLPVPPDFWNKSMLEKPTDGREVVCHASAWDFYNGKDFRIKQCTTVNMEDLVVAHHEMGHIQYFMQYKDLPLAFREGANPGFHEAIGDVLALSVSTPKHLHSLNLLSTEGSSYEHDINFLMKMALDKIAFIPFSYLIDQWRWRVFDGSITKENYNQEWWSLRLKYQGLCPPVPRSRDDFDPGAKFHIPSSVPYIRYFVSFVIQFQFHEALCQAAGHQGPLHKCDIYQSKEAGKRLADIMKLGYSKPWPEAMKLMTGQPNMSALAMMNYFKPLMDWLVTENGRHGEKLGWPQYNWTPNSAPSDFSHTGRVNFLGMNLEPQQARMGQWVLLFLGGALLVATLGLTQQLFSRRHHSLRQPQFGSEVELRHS
# ACE [1] = test: pH dependence of ACE activity; assay type: biochemical
# Description: (§1) The enzyme is active over a broad pH range with a maximum around pH 8.0, but is at least about 50% active in the range pH 7.0-pH 8.8, for both HipHisLeu and benzoylPheAlaPro. Although the enzyme is active in a variety of buffer systems known in the art, it is preferred for convenience, when using benzoylPheAlaPro as substrate, to conduct the assays in 0.05 M Hepes buffer, pH 8.0 containing 0.15 M sodium chloride. Detailed protocols for carrying out the assay are given in the examples. […] The preferred concentration range is 1×10^-9 M to 7×10^- 5 M.
# ACE [2] = test: Sulfate and chloride effects on ACE catalysed hydrolysis (general description); assay type: biochemical; conditions: sulfate present
# Description: An assay for ACE, using HipHisLeu as substrate, is herewith described. The assay is more sensitive than any heretofore disclosed using HipHisLeu as substrate. Maximum sensitivity is achieved by the inclusion of sulfate ions, preferably as sodium sulfate, in the reaction mixture. When 0.1 M NaCl is present in the reaction mixture, sulfate ions are stimulatory from 0.1 M to at least 1.1 M. Maximum stimulation occurs in the range from 0.75 M to 1.1 M Na2 SO4.
# An even more sensitive assay for ACE activity has been developed using the novel compound ^3 H-benzoylPheAlaPro as substrate. This new substrate can be used to assay ACE in human urine in incubations as short as 15 minutes. The response of this substrate to ions is strikingly different from the response of HipHisLeu. […] This difficulty has been solved by the proper choice of extracting solvent. While a variety of organic solvents may be suitable for the extraction step, it is preferred to employ toluene. Approximately 88% of ^3 H-benzoylPhe enters the toluene phase while only 6% of the unhydrolyzed substrate enters the toluene phase, when toluene and the acidified reaction mixture are in approximately equal volumes at room temperatures.
# as §1
structure (smiles),measurement,setting,value
CC(C)C[C@H](NC(=O)[C@H](Cc1c[nH]cn1)NC(=O)CNC(=O)c1ccccc1)C(=O)O [HipHisLeu] (Bz-Gly-His-Leu-OH),inhibition on removal of sodium chloride,ACE from rabbit lung,92%
same,"Reaction Velocity, Per Cent of Substrate Hydrolyzed in 10 minutes","Guinea pig urinary ACE; pH 8.0, 0.0M NaCl, Na2 SO4 0 M",0 Per Cent
same,"Reaction Velocity, Per Cent of Substrate Hydrolyzed in 10 minutes","Guinea pig urinary ACE; pH 8.0, 0.0M NaCl, Na2 SO4 0.1 M",0 Per Cent
same,"Reaction Velocity, Per Cent of Substrate Hydrolyzed in 10 minutes","Guinea pig urinary ACE; pH 8.0, 0.0M NaCl, Na2 SO4 0.2 M",0 Per Cent
same,"Reaction Velocity, Per Cent of Substrate Hydrolyzed in 10 minutes","Guinea pig urinary ACE; pH 8.0, 0.0M NaCl, Na2 SO4 0.3 M",0 Per Cent
same,"Reaction Velocity, Per Cent of Substrate Hydrolyzed in 10 minutes","Guinea pig urinary ACE; pH 8.0, 0.0M NaCl, Na2 SO4 0.4 M",0.1 Per Cent
same,"Reaction Velocity, Per Cent of Substrate Hydrolyzed in 10 minutes","Guinea pig urinary ACE; pH 8.0, 0.0M NaCl, Na2 SO4 0.5 M",0.1 Per Cent
same,"Reaction Velocity, Per Cent of Substrate Hydrolyzed in 10 minutes","Guinea pig urinary ACE; pH 8.0, 0.0M NaCl, Na2 SO4 0.6 M",0.25 Per Cent
same,"Reaction Velocity, Per Cent of Substrate Hydrolyzed in 10 minutes","Guinea pig urinary ACE; pH 8.0, 0.0M NaCl, Na2 SO4 0.7 M",0.25 Per Cent
same,"Reaction Velocity, Per Cent of Substrate Hydrolyzed in 10 minutes","Guinea pig urinary ACE; pH 8.0, 0.0M NaCl, Na2 SO4 0.75 M",0.25 Per Cent
same,"Reaction Velocity, Per Cent of Substrate Hydrolyzed in 10 minutes","Guinea pig urinary ACE; pH 8.0, 0.0M NaCl, Na2 SO4 0.8 M",0.25 Per Cent
same,"Reaction Velocity, Per Cent of Substrate Hydrolyzed in 10 minutes","Guinea pig urinary ACE; pH 8.0, 0.0M NaCl, Na2 SO4 0.9 M",0.7 Per Cent
same,"Reaction Velocity, Per Cent of Substrate Hydrolyzed in 10 minutes","Guinea pig urinary ACE; pH 8.0, 0.0M NaCl, Na2 SO4 1.2 M",3.9 Per Cent
same,"Reaction Velocity, Per Cent of Substrate Hydrolyzed in 10 minutes","Guinea pig urinary ACE; pH 8.0, 0.1M NaCl, Na2 SO4 0 M",0.3 Per Cent
same,"Reaction Velocity, Per Cent of Substrate Hydrolyzed in 10 minutes","Guinea pig urinary ACE; pH 8.0, 0.1M NaCl, Na2 SO4 0.4 M",4.1 Per Cent
same,"Reaction Velocity, Per Cent of Substrate Hydrolyzed in 10 minutes","Guinea pig urinary ACE; pH 8.0, 0.1M NaCl, Na2 SO4 0.6 M",8.3 Per Cent
same,"Reaction Velocity, Per Cent of Substrate Hydrolyzed in 10 minutes","Guinea pig urinary ACE; pH 8.0, 0.1M NaCl, Na2 SO4 0.75 M",12.05 Per Cent
same,"Reaction Velocity, Per Cent of Substrate Hydrolyzed in 10 minutes","Guinea pig urinary ACE; pH 8.0, 0.1M NaCl, Na2 SO4 0.9 M",12.25 Per Cent
same,pH of maximum activity,ACE [1],~8.0 pH
same,activity of enzyme (relative to maximum),ACE [1]; range pH 7.0-pH 8.8,at least 50%
same,dependence of hydrolysis on added chloride,ACE [2],"can be carried out in the absence of added chloride, if sulfate is present"
